Consider 4 molecules from article PMC11226541 (Cancer Medicine, 2024).

Like-named read-outs stand apart in the source and are kept apart here.

Data set [1] has as its system patients with locally advanced and metastatic solid tumors. Briefly: Dose-limiting toxicities, MTD and RP2D, dose-escalation stage (modified 3 + 3). Format: in vivo, human. As to conditions: QD, with pamiparib 60 mg BID. The source says: AEs were coded using MedDRA v25.0 or higher.
A short description of data set [2]: Pharmacokinetics of TMZ in plasma (combination with pamiparib). It is filed as in vivo. As to conditions: human, po, read-out: mean plasma concentration of TMZ 1 h after oral administration. Here is the method: (§1) PK of pamiparib and TMZ were assessed in blood samples collected at various timepoints following administration (pamiparib: ≤30 min before dosing, 1 h ± 15 min, 2 h ± 30 min, and 4 h ± 30 min after pamiparib dose on cycle 1 Day 1 and cycle 1 Day 15; TMZ: on cycle 1 Day 1 and Day 7 at ≤30 min before dosing and 1 h ± 15 min after TMZ dose). Parameters for pamiparib included the maximum observed plasma concentration (Cmax), lowest concentration reached before the next administered dose (Ctrough), half‐life (T1/2), and time to reach peak plasma concentration (Tmax). Biomarkers were analyzed in blood samples, processed into serum, plasma, and cell fractions for the analysis of germline mutations and circulating markers. Available archival or fresh tumor tissue samples were analyzed at a central laboratory. Tumor tissue was sent either as a formalin‐fixed, paraffin‐embedded block with tumor tissue (preferred) or as approximately 10 unstained slides.

The subject of the next data set is recurrent glioblastoma. Also on record: method as in PMID 32347934. As to conditions: combination with TMZ; cited from earlier work.
Data set [3] concerns advanced or metastatic solid tumors. As to conditions: cited from earlier work.
For data set [4], the system named is triple-negative breast cancer with germline BRCA1/2 mutations. Also on record: method as in PMID 36459284. As to conditions: monotherapy, TNBC patients with germline BRCA1/2 mutations; cited from earlier work.
Data set [5] deals with BRCA1/2-mutated ovarian cancer. Also on record: method as in PMID 34844979. To be noted: monotherapy, cited from earlier work.
On the set-up of data set [6]: method as in PMID 32652442. To be noted: cited from earlier work.
The nature of data set [7]: Pharmacokinetics of pamiparib in plasma (combination with TMZ). As to conditions: for concentration at 2 h: read-out: geometric mean pamiparib concentration at 2 h post dose. Format: in vivo, human. The method, then: as §1
A further data set deals with advanced malignancies. Also on record: method as in PMID 36136304. To be noted: combination with TMZ, related AEs; cited from earlier work.

Turning to `Cn1nnc2c(C(N)=O)ncn2c1=O` [TMZ, Temozolomide], in [1] (7-day pulsed), the “RP2D of TMZ” value came to 60 mg. The “maximum tolerated dose of TMZ” value is on record as 60 mg in data set [1] (7-day pulsed) and 20 mg in [1] (continuous). The concentration at 1 h stood at 338 ng/mL in [2] (cycle 1 Day 1, 20-mg dose) and 1510 ng/mL in data set [2] (cycle 1 Day 1, 120-mg dose).

Regarding `O=C(c1cc(Cc2n[nH]c(=O)c3ccccc23)ccc1F)N1CCN(C(=O)C2CC2)CC1` [olaparib], in the data set with recurrent glioblastoma, the “Grade 3/4 neutropenia” value was 13% and the “Grade 3/4 thrombocytopenia” value is given as 25%.

Consider `C[C@]12CCCN1CC1=NNC(=O)c3cc(F)cc4[nH]c2c1c34` [pamiparib, Pamiparib], for which, in data set [3] (administered orally, BID), the RP2D of pamiparib is 60 mg. Further, the ORR is reported as 27.3% in data set [3] (monotherapy, advanced or metastatic solid tumors); 38.2% in data set [4]; 31.6% in data set [5] (BRCA1/2-mutated platinum-resistant ovarian cancer); 64.6% in data set [5] (BRCA1/2-mutated platinum-sensitive ovarian cancer). Moreover, in data set [6] (mice and rats), the brain penetration entry is “strong brain penetration”. For the same molecule, the “drug exposure in the brain” value in [6] (mice) is “higher drug exposure in the brain compared with other PARP inhibitors”. The “geometric mean AUC0-4 at steady state relative to single-dose pamiparib administration” value in data set [7] (combination with TMZ) is “approximately twice”. In addition, the concentration at 2 h in data set [7] (human, plasma, oral, cycle 1 Day 1, combination with TMZ) worked out at 1580 ng/mL; in [7] (human, plasma, oral, cycle 1 Day 15, combination with TMZ) it was 3480 ng/mL. The AUC(0-t) in data set [7] (human, plasma, oral, steady state with combination TMZ therapy (cycle 1 Day 15), pamiparib 60 mg BID, read-out: pamiparib geometric mean AUC0-4) turned out to be 11100 ng·h/mL. In addition, the Cmax in data set [7] (oral, pamiparib 60 mg BID with TMZ, human plasma, n/N 20/20, read-out: Cmax – mean (SD)) came out at 2010 ng/mL. Also, the Tmax in data set [7] (oral, pamiparib 60 mg BID with TMZ, human plasma, n/N 20/20, read-out: Tmax – mean (SD)) turned out to be 4 h. Moreover, the “AUC0-4, SS – geometric mean” value in [7] (pamiparib 60 mg BID with TMZ, steady state, cycle 1, day 15, human plasma, n/N 8/20) was 11,119 h*ng/mL. Besides, the “Ctrough, SS – mean (SD)” value in [7] (pamiparib 60 mg BID with TMZ, steady state, cycle 1, day 15, human plasma, n/N 14/20) is recorded as 2,934 (2346) ng/mL.

Regarding `Cn1ncnc1[C@H]1c2n[nH]c(=O)c3cc(F)cc(c23)N[C@@H]1c1ccc(F)cc1` [talazoparib], in the data set with advanced malignancies, the “Grade 3/4 neutropenia” value is listed as 28% and the “Grade 3/4 thrombocytopenia” value is given as 33%.

In general, Cmax refers to the peak of the concentration-time curve. What is called Tmax is the time at which the peak concentration occurs.
